Earlier results, collected in patent US6004969A (National Science Council, priority 1997, dated 1999).

Key:
animal paw swelling = conditions: topical use; words
[1] = oral administration; words

Row | SMILES | inhibition of animal paw swelling (animal paw swelling) | first pass effect [1] | gastrointestinal absorption [1]
1 | CC1(C)[C@@H](O)CC[C@]2(C)[C@H]3C(=O)C=C4[C@@H]5C[C@@](C)(C(=O)O)CC[C@]5(C)CC[C@@]4(C)[C@]3(C)CC[C@@H]12 [glycyrrhetinic acid] | can inhibit animal paw swelling |  | 
2 | CO[C@]12CC[C@@]3(C[C@@H]1[C@](C)(O)C(C)(C)C)[C@H]1Cc4ccc(O)c5c4[C@@]3(CCN1CC1CC1)[C@H]2O5 [Buprenorphine, 21-cyclo-propylmethyl-7-α-[(S)-1-hydroxy-1,2,2-trimethylpropyl]-6,14-endoethano-6,7,8,14-tetrahydroripavine] |  | high first pass effect | poor gastrointestinal absorption
3 | CC1(C)[C@@H](O[C@H]2O[C@H](C(=O)O)[C@@H](O)[C@H](O)[C@H]2O[C@@H]2O[C@H](C(=O)O)[C@@H](O)[C@H](O)[C@H]2O)CC[C@]2(C)[C@H]3C(=O)C=C4[C@@H]5C[C@@](C)(C(=O)O)CC[C@]5(C)CC[C@@]4(C)[C@]3(C)CC[C@@H]12 [glycyrrhizic acid] | can inhibit animal paw swelling |  | 
